The values that follow come from patent publication US8623879B2, “1-heterocyclyl-1,5-dihydro-pyrazolo[3,4-D] pyrimidin-4-one derivates and their use as PDE9A modulators” (Boehringer Ingelheim International GmbH, priority 2008, dated 2014).

Each structure is given as a SMILES string.

The target of the experiment is T1, human PDE9A2 (Homo sapiens, UniProt O76083).
T1 construct: made in house; host or cells: Sf9 insect cells (infected); crude lysate used as enzyme source
Nature of the experiment: PDE9A2 enzymatic activity assay (scintillation proximity assay, SPA). Type of experiment: biochemical. The settings on record: for inhibition at 10 µM: read-out: % inhibition of PDE9A2 (at 10 micromolar concentration), 10 micromolar concentration; for inhibition at 10 µM / % inhibition of PDE9A2 (at 10 micromolar concentration): values above 100% adjusted to 100%; for IC50: reported only as range 1-100 or 101-1200 nanomolar, specific value lies within range, read-out: IC50 within range [nanomolar (nM)]. For orientation: SPA uses beads or plates that emit light when radiolabelled molecules are held near them.

T1 sequence (O76083 1-533 isoform O76083-2): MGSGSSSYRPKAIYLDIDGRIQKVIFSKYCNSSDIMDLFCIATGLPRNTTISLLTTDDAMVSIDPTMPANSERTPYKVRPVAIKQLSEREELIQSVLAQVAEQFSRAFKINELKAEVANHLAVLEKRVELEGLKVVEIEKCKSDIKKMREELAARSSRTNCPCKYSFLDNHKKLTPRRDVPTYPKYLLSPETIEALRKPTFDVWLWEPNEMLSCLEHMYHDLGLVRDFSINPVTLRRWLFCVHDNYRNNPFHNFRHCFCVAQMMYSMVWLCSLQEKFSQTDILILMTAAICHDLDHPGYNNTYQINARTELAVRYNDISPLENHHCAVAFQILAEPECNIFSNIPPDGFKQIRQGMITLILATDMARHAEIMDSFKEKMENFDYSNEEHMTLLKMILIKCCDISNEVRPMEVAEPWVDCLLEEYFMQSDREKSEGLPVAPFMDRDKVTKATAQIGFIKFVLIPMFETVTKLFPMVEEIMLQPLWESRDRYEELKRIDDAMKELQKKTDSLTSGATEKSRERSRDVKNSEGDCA

What is called IC50 is the point on the concentration scale where inhibition reaches its midpoint. Take `O=C(c1ccccc1)N1CCCC(n2ncc3c(=O)[nH]c(Cc4ccccn4)nc32)C1` (racemic) [Example 175]: the inhibition at 10 µM was 88% and the 50% inhibitory concentration (IC50) lay in the range of 101 to 1200 nM.

As for `CC(=O)N1CCCC(n2ncc3c(=O)[nH]c(Cc4ccccn4)nc32)C1` (racemic) [Example 176], the inhibition at 10 µM was found to be 85% and the IC50 was in the range of 101 to 1200 nM.

Regarding `CC(C)Cc1nc2c(cnn2C2CCCN(C(=O)c3ccccc3)C2)c(=O)[nH]1` (racemic) [Example 177], the inhibition at 10 µM turned out to be 93% and the IC50 was 101 to 1200 nM.

With `CCOc1ccccc1Cc1nc2c(cnn2C2CCCN(C(=O)c3ccccc3)C2)c(=O)[nH]1` (racemic) [Example 178], the inhibition at 10 µM stood at 92% and the half-inhibitory concentration (IC50) is 101 to 1200 nM.

Consider `CCOc1ccccc1Cc1nc2c(cnn2C2CCCN(C(C)=O)C2)c(=O)[nH]1` (racemic) [Example 179], for which the inhibition at 10 µM was 91% and the IC50 was in the range of 101 to 1200 nM.

For the compound `CC(=O)N1CCCC(n2ncc3c(=O)[nH]c(CC4CCC4)nc32)C1` (racemic) [Example 180], the inhibition at 10 µM was 96% and the IC50 lay within 101 to 1200 nM.

Consider `O=C(c1ccccc1)N1CCCC(n2ncc3c(=O)[nH]c(CC4CCC4)nc32)C1` (racemic) [Example 181], for which the inhibition at 10 µM stood at 96% and the IC50 lay in the range of 1 to 100 nM.

On to `O=C(c1ccccc1)N1CCCC(n2ncc3c(=O)[nH]c(Cc4ccccc4)nc32)C1` (racemic) [Example 182], for which the inhibition at 10 µM was 100% and the IC50 was 1 to 100 nM.

With `O=C(c1ccccc1)N1CCCC(n2ncc3c(=O)[nH]c(CC4CCCC4)nc32)C1` (racemic) [Example 183], the inhibition at 10 µM amounted to 99% and the IC50 was in the range of 1 to 100 nM.

On to `CC(=O)N1CCCC(n2ncc3c(=O)[nH]c(Cc4cccc(C(F)(F)F)c4)nc32)C1` (racemic) [Example 184], for which the inhibition at 10 µM came to 97% and the IC50 fell in the range of 1 to 100 nM.

Take `O=C(Oc1ccc(F)cc1)N1CCCC(n2ncc3c(=O)[nH]c(Cc4ccccc4)nc32)C1` (racemic) [Example 185]: the inhibition at 10 µM turned out to be 100% and the IC50 lay in the range of 1 to 100 nM.

Regarding `O=C(c1ccccc1)N1CCCC(n2ncc3c(=O)[nH]c(Cc4ccccc4F)nc32)C1` (racemic) [Example 186], the inhibition at 10 µM is 97% and the IC50 lay in the range of 1 to 100 nM.

On to `CC(=O)N1CCCC(n2ncc3c(=O)[nH]c(Cc4ccccc4F)nc32)C1` (racemic) [Example 187], for which the inhibition at 10 µM came out at 96% and the 50% inhibitory concentration (IC50) fell in the range of 1 to 100 nM.

In the case of `CC(=O)N1CCCC(n2ncc3c(=O)[nH]c(Cc4ccccc4OC(F)(F)F)nc32)C1` (racemic) [Example 188], the inhibition at 10 µM was determined as 96% and the IC50 lay within 1 to 100 nM.

Turning to `CC(=O)N1CCCC(n2ncc3c(=O)[nH]c(CC(C)C)nc32)C1` (racemic) [Example 189], the inhibition at 10 µM was determined as 90% and the half-inhibitory concentration (IC50) is 101 to 1200 nM.

Take `CN(C)C(=O)N1CCC(n2ncc3c(=O)[nH]c(Cc4ccccc4)nc32)C1` (racemic) [Example 190]: the inhibition at 10 µM came out at 82% and the IC50 was 101 to 1200 nM.

Take `O=c1[nH]c(CC2CCCC2)nc2c1cnn2C1CCCN(CC(F)(F)F)C1` (racemic) [Example 191]: the inhibition at 10 µM stood at 92% and the IC50 was in the range of 101 to 1200 nM.

Turning to `O=c1[nH]c(CC2CCC2)nc2c1cnn2C1CCCN(CC(F)(F)F)C1` (racemic) [Example 192], the inhibition at 10 µM amounted to 100% and the concentration for half-maximal inhibition (IC50) is 101 to 1200 nM.

Turning to `O=c1[nH]c(CC2CCCC2)nc2c1cnn2C1CCCN(CC(F)F)C1` (racemic) [Example 193], the inhibition at 10 µM was found to be 99% and the 50% inhibitory concentration (IC50) lay in the range of 101 to 1200 nM.

As to `O=c1[nH]c(CC2CCCC2)nc2c1cnn2C1CCNC1` (racemic) [Example 194], the inhibition at 10 µM stood at 97% and the IC50 lay within 101 to 1200 nM.

On to `O=c1[nH]c(CC2CCCC2)nc2c1cnn2C1CCCNC1` (racemic) [Example 196], for which the inhibition at 10 µM was found to be 91% and the half-inhibitory concentration (IC50) was 101 to 1200 nM.

Consider `O=c1[nH]c(Cc2ccccc2)nc2c1cnn2C1CCCNC1` (racemic) [Example 197], for which the inhibition at 10 µM is 91% and the IC50 was in the range of 101 to 1200 nM.

Regarding `O=c1[nH]c(Cc2ccccc2OC(F)(F)F)nc2c1cnn2C1CCCNC1` (racemic) [Example 198], the inhibition at 10 µM amounted to 100% and the IC50 lay within 101 to 1200 nM.

`O=c1[nH]c(Cc2ccccc2)nc2c1cnn2C1CCNC1` (racemic) [Example 199]: the inhibition at 10 µM stood at 88% and the half-inhibitory concentration (IC50) is 101 to 1200 nM.

For the compound `O=c1[nH]c(Cc2ccccc2OC(F)(F)F)nc2c1cnn2C1CCNC1` (racemic) [Example 200], the inhibition at 10 µM turned out to be 91% and the concentration for half-maximal inhibition (IC50) lay within 101 to 1200 nM.

In the case of `O=c1[nH]c(CC2CCC2)nc2c1cnn2C1CCNC1` (racemic) [Example 201], the inhibition at 10 µM came out at 85% and the IC50 is 101 to 1200 nM.

`O=c1[nH]c(Cc2ccccc2F)nc2c1cnn2C1CCCNC1` (racemic) [Example 204]: the inhibition at 10 µM was 87% and the concentration for half-maximal inhibition (IC50) fell in the range of 101 to 1200 nM.

Turning to `O=c1[nH]c(Cc2cccc(C(F)(F)F)c2)nc2c1cnn2C1CCCNC1` (racemic) [Example 205], the inhibition at 10 µM was determined as 100% and the IC50 lay within 1 to 100 nM.

`O=c1[nH]c(CC2CCC2)nc2c1cnn2C1CCCNC1` (racemic) [Example 206]: the inhibition at 10 µM came out at 82% and the half-maximal inhibitory concentration (IC50) lay in the range of 101 to 1200 nM.

As for `CN1CCC(n2ncc3c(=O)[nH]c(CC4CCCC4)nc32)C1` (racemic) [Example 207], the inhibition at 10 µM was 100% and the IC50 fell in the range of 1 to 100 nM.

Regarding `CN1CCCC(n2ncc3c(=O)[nH]c(CC4CCCC4)nc32)C1` (racemic) [Example 208], the inhibition at 10 µM was 100% and the IC50 was in the range of 101 to 1200 nM.

Regarding `CN1CCCC(n2ncc3c(=O)[nH]c(Cc4ccccc4OC(F)(F)F)nc32)C1` (racemic) [Example 209], the inhibition at 10 µM was 89% and the IC50 fell in the range of 101 to 1200 nM.

In the case of `CN1CCC(n2ncc3c(=O)[nH]c(Cc4ccccc4)nc32)C1` (racemic) [Example 210], the inhibition at 10 µM was 97% and the IC50 lay within 1 to 100 nM.

As for `CN1CCC(n2ncc3c(=O)[nH]c(Cc4ccccc4OC(F)(F)F)nc32)C1` (racemic) [Example 211], the inhibition at 10 µM turned out to be 99% and the IC50 lay within 1 to 100 nM.

Turning to `COc1ccccc1Cc1nc2c(cnn2C2CCN(C)C2)c(=O)[nH]1` (racemic) [Example 212], the inhibition at 10 µM was 92% and the IC50 was 101 to 1200 nM.

Turning to `CN1CCC(n2ncc3c(=O)[nH]c(CC4CCC4)nc32)C1` (racemic) [Example 214], the inhibition at 10 µM is 98% and the IC50 was in the range of 1 to 100 nM.

As for `CN1CCCC(n2ncc3c(=O)[nH]c(Cc4ccccc4)nc32)C1` (racemic) [Example 215], the inhibition at 10 µM came out at 93% and the IC50 lay in the range of 101 to 1200 nM.

On to `CN1CCCC(n2ncc3c(=O)[nH]c(Cc4cccc(C(F)(F)F)c4)nc32)C1` (racemic) [Example 216], for which the inhibition at 10 µM was 96% and the IC50 lay in the range of 1 to 100 nM.

`CN1CCCC(n2ncc3c(=O)[nH]c(Cc4ccccc4F)nc32)C1` (racemic) [Example 217]: the inhibition at 10 µM worked out at 97% and the concentration for half-maximal inhibition (IC50) fell in the range of 101 to 1200 nM.

With `CN1CCCC(n2ncc3c(=O)[nH]c(CC4CCC4)nc32)C1` (racemic) [Example 218], the inhibition at 10 µM came to 88% and the IC50 was in the range of 101 to 1200 nM.

As for `CCC(Cc1nc2c(cnn2C2CCOCC2)c(=O)[nH]1)C(F)(F)F` (single isomer, unassigned) [Example 61], the inhibition at 10 µM worked out at 97% and the 50% inhibitory concentration (IC50) was 1 to 100 nM.

For `CCC(Cc1nc2c(cnn2C2CCOCC2)c(=O)[nH]1)C(F)(F)F` (single isomer, unassigned) [Example 62], the “% inhibition of PDE9A2 (at 10 micromolar concentration)” value (“% inhibition of PDE9A2” for short) is recorded as 95% and the IC50 lay in the range of 1 to 100 nM.

For the compound `CC(Cc1nc2c(cnn2C2CCOCC2)c(=O)[nH]1)C(F)(F)F` (single isomer, unassigned) [Example 131], the inhibition at 10 µM was 97% and the IC50 lay in the range of 1 to 100 nM.

Take `CC(C)Cc1nc2c(cnn2C2CCOC2)c(=O)[nH]1` (single isomer, unassigned) [Example 132-3]: the inhibition at 10 µM worked out at 89% and the IC50 fell in the range of 101 to 1200 nM.

With `CC(C)Cc1nc2c(cnn2C2CCOC2)c(=O)[nH]1` (single isomer, unassigned) [Example 132-4], the “% inhibition of PDE9A2” value worked out at 98% and the half-maximal inhibitory concentration (IC50) was in the range of 1 to 100 nM.

In the case of `O=c1[nH]c(CC2CCC2)nc2c1cnn2C1CCOC1` (single isomer, unassigned) [Example 132-6], the inhibition at 10 µM is 99% and the IC50 is 1 to 100 nM.

Turning to `O=c1[nH]c(Cc2ccccn2)nc2c1cnn2C1CCOC1` (single isomer, unassigned) [Example 132-7], the inhibition at 10 µM stood at 94% and the IC50 was 1 to 100 nM.

With `O=c1[nH]c(CC2CCC2)nc2c1cnn2C1CCOC1` (single isomer, unassigned) [Example 132-9], the “% inhibition of PDE9A2” value came to 95% and the half-maximal inhibitory concentration (IC50) is 101 to 1200 nM.

Regarding `CC(Cc1nc2c(cnn2C2CCOCC2)c(=O)[nH]1)C(F)(F)F` (single isomer, unassigned) [Example 132], the “% inhibition of PDE9A2” value was 90% and the IC50 was in the range of 101 to 1200 nM.

As to `O=c1[nH]c(CC2CCCCCC2)nc2c1cnn2C1CCOCC1` [Example 1], the inhibition at 10 µM was 100% and the IC50 was 1 to 100 nM.

For the compound `Cc1ccccc1Cc1nc2c(cnn2C2CCOCC2)c(=O)[nH]1` [Example 2], the inhibition at 10 µM is 99% and the 50% inhibitory concentration (IC50) is 1 to 100 nM.

In the case of `CC(C)CCc1nc2c(cnn2C2CCOCC2)c(=O)[nH]1` [Example 3], the inhibition at 10 µM came out at 99% and the half-inhibitory concentration (IC50) was 1 to 100 nM.
